Experimental data taken from patent US8242098B2, “Methods of treating hormone-related conditions using thio-oxindole derivatives” (Wyeth LLC, priority 2002, dated 2012).

Columns and labels:
androgen receptor (AR) [1] = biological target: T1, androgen receptor (AR) (Mus musculus, UniProt P19091); test: Anti-androgenic activity, PRE-tk-luciferase reporter in L929 cells co-treated with 3 nM DHT; type: cell-based; settings: nine point dose response
T1 construct: in the L929 cells which express the AR but not the PR; endogenous in cells; host or cells: L929 cells
T1 sequence (P19091 1-899): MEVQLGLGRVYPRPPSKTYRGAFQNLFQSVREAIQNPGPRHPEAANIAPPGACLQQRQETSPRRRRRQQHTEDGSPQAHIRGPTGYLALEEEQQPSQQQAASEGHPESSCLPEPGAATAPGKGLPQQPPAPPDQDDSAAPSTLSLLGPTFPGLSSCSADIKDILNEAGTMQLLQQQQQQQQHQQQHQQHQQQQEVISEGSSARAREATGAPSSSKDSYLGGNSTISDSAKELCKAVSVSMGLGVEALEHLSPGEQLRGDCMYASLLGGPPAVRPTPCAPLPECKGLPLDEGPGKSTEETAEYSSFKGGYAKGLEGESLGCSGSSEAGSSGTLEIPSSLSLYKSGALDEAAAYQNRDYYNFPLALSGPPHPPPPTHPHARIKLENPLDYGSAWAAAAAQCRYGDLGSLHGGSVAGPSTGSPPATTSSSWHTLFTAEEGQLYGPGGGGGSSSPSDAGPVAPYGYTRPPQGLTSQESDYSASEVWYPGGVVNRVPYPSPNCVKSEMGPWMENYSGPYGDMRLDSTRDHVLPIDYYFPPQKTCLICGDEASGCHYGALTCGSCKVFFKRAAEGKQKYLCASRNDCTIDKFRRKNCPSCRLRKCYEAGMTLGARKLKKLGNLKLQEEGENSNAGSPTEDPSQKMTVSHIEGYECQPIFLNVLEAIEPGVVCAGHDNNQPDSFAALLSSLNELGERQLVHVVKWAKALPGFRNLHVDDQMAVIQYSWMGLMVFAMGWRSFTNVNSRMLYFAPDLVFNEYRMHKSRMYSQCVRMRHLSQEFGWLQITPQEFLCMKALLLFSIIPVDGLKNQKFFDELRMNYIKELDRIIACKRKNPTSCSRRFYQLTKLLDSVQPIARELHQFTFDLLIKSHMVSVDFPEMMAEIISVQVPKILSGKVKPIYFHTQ
Procedure: (§1) The androgen receptor (AR) agonistic and antagonistic activity of the compositions of the invention in the L929 cells which express the AR but not the PR was evaluated as described in Zhang et al., Steroids, 65(10-11): 637-643 (October-November 2000).
(§2) Cells were plated in 96-well plates at 25,000 cells/well in DMEM (BioWhittaker) with 10% (v/v) fetal bovine serum (FBS). The next day, cells were infected with the adenovirus PRE-tk-luciferase reporter construct (2×10^9 pfu/ml particles) and kept in DMEM containing 10% charcoal stripped FBS for an additional 24 hours. […] To test the anti-androgenic activity, cells were co-treated with 3 nM DHT. Luciferase activity was measured 24 hours following the treatment.

androgen receptor (AR) [2] = biological target: T1, androgen receptor (AR); test: AR agonistic activity, PRE-tk-luciferase reporter in L929 cells; type: cell-based; settings: at the maximum concentration tested (i.e., 10 nM)
Procedure: as §1, §2

antagonistic activity (androgen receptor (AR) [1]): significant antagonistic activity | agonistic activity (androgen receptor (AR) [2]): only marginal agonistic activity
Compound: Cn1c(C#N)ccc1-c1ccc2c(c1)C1(CCCCC1)C(=NC#N)N2 [5′-(5-Cyano-1-methyl-1H-pyrrol-2-yl)spiro[cyclohexane-1,3′-[3H]indol]-2′-ylidenecyanamide]
